# Results taken from patent US20250011368A1, “DLL3 TARGETING PEPTIDES AND CONSTRUCTS THEREOF” (MARIANA ONCOLOGY INC., priority 2023, published 2025).
# Numbered stars: 1 amine (or outer) side, 2 acyl side, 3 side chain; on linkers, the order of the positions; unused ones are H or OH. Bridge positions count the residues as written; N and C are the ends. Square brackets hold non-standard residues; d marks the D form. Peptide text beside a SMILES is read from it. * marks the point of attachment. Ala(piperidin-4-yl) = O=C([C@H](CC1CCN([*:3])CC1)N[*:1])[*:2]; DOTA = O=C(O)CN1CCN(CC(=O)O)CCN(CC(=O)*)CCN(CC(=O)O)CC1; Trp(5-F) = N[C@@H](Cc1c[nH]c2ccc(F)cc12)C(=O)O; Trp(7-aza) = N[C@@H](Cc1c[nH]c2ncccc12)C(=O)O; Pro(trans-4-F) = O=C(O)[C@@H]1C[C@@H](F)CN1; 2Nal = N[C@@H](Cc1ccc2ccccc2c1)C(=O)O; Cha = N[C@@H](CC1CCCCC1)C(=O)O; Lauroyl = CCCCCCCCCCCC(=O)*
# T1: human DLL3 (Homo sapiens, UniProt Q9NYJ7)
# T1 sequence (Q9NYJ7 27-618): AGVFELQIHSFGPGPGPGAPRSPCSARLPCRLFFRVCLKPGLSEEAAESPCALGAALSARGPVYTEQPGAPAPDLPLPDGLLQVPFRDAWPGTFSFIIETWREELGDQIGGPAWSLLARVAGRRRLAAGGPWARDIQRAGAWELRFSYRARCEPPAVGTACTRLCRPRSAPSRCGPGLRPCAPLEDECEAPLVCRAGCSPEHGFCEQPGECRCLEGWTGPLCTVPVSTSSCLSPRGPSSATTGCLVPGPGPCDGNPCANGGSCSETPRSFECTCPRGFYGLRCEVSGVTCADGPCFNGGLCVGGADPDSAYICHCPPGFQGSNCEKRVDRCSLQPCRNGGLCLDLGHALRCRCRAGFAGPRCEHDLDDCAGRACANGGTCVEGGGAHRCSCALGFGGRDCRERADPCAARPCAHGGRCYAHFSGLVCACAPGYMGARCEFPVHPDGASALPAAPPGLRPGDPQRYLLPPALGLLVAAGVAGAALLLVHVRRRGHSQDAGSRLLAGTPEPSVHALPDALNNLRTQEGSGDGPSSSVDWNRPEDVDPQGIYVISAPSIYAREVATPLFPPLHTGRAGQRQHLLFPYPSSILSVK
# T2: DLL3 on SHP-77 cells (human, UniProt Q9NYJ7 27-618)
# T2 construct: SHP-77 cells are human-derived, non-engineered SCLC cells
# T2 sequence: T1 sequence (Q9NYJ7 27-618)
# T3: Biotinylated human DLL3 (Delta Like Canonical Notch Ligand 3) (human, UniProt Q9NYJ7 27-492, limits assumed, biotinylated (site not stated))
# T3 construct: also called Delta-like protein 3; biotinylated target ligand human DLL3
# T3 sequence: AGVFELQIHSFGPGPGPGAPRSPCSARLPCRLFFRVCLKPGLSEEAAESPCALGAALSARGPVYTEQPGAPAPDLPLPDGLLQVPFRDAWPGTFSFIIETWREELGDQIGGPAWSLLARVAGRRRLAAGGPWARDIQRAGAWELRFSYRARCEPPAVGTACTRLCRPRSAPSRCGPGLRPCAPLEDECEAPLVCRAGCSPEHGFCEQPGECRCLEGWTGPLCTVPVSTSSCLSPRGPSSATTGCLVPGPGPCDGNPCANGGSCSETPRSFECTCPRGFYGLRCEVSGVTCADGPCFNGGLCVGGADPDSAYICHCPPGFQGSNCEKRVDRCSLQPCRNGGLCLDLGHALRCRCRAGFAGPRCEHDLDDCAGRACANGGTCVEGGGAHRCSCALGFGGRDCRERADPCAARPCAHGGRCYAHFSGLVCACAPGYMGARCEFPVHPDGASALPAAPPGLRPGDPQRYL
# Experiments:
# human DLL3 = biological target: T1, human DLL3; experiment: Affinity determination by Surface Plasmon Resonance (SPR); format: binding; details: 25° C., biotinylated human DLL3 immobilized on streptavidin sensor chip, 1:1 binding model; read-out: SPR KD
# Outline: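 Biotinylated human DLL3 was captured on a streptavidin chip with a reference surface. Compounds at several concentrations were injected at 100 μL/minute in phosphate buffer (137 mM NaCl, 2.7 mM KCl, 0.05% P20, 2% DMSO). Affinity and kinetics came from 1:1 model fits of the sensorgrams.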
# CT26.DLL3 cells [1] = experiment: Cell binding (total uptake) of [177Lu]Lu-test peptide, CT26.DLL3 cells; format: cell-based; details: 1 hour at 37° C.
# Outline: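 CT26.DLL3 cells (5–25 million/condition) in 1% PBSA incubated 1 h at 37°C with [177Lu]Lu-labelled peptide (0.8 μCi in 300 μL), radiolabelled at pH ~5, 80°C. Cells pelleted, washed twice with cold PBS+1% BSA; bound and unbound fractions gamma-counted, uptake binned as ≤25%, 25–50%, >50%.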
# CT26.DLL3 cells [2] = experiment: Internalization (out of bound fraction) of [177Lu]Lu-test peptide, CT26.DLL3 cells; format: cell-based; details: 1 hour at 37° C., glycine pH 2.5 wash
# Outline: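 [177Lu]Lu-peptide (labelled at 80 °C, pH ~5, 17-20 min) incubated with 5-25 million CT26.DLL3 cells in 1% PBSA, 0.8 μCi, 1 h at 37 °C. Surface-bound activity stripped twice with 50 mM glycine pH 2.5, 3 min; NaOH-solubilized cell activity gamma-counted as internalized fraction, binned ≤25%, 25-50%, >50%.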
# SHP-77 cells [3] = experiment: Cell binding (total uptake) of [177Lu]Lu-test peptide, SHP-77 cells; format: cell-based; details: SHP77 cells, 1 hour at 37° C., bound fraction
# Method: [^177Lu]LuCl3 was received from venders in HCl solution. For every mCi of [^177Lu]LuCl3 added to the reaction vial (1.5 mL Eppendorf vial), ammonium acetate buffer (0.2 M, pH 4.9, 100 μL, containing 1% w/v ascorbic acid and 6% v/v ethanol) and peptide conjugate (1 nmol). A peptide conjugate of the present disclosure is also referred to herein as a “chelator-peptide”. The pH of the solution was determined to be approximately 5 by using pH strips. The reaction vial was incubated at 80° C., 700 RPM for 17-20 minutes. A sample from the reaction was analyzed by RP-HPLC using an Agilent Infinity II 1260 HPLC to determine reaction completion and radiochemical purity of [^177Lu]Lu-chelator-peptide. HPLC conditions: Waters XBridge BEH C18 Column, 130 Å, 3.5 um, 4.6 mm×250 mm; mobile phase: Solvent A=water (with 0.1% formic acid), solvent B=acetonitrile (with 0.1% formic acid). Gradients: 25-45% B in 10 minutes, 45-65% B in 12 minutes, 65-90% in 6 minutes at a flow rate of 0.5 mL/minute. Required amounts of the product was formulated in 1% PBSA for cell studies.
# (§1) The study was conducted using SHP-77, CT26.WT, and CT26.DLL3 cells (Table 7) Adherent cell studies: The cells were cultured in appropriate culture media (20 mL) in tissue culture treated T150 flasks at 37° C. and 5% CO2. Adherent cells were detached (60-70% confluent) using 5 mL Versene at 37° C. for 3 minutes. After confirming the viability using countess and count of detached cells using Trypan blue, the cells were centrifuged at 4° C. for 5 minutes (1,000 rpm). The cell pellet obtained was washed once with PBS and resuspended in 1% PBSA to obtain the desired cell concentration (5-25 million cells/mL).
# Suspension cell studies: The cells were cultured in appropriate culture media (20 mL) in tissue culture treated T150 flasks at 37° C. and 5% CO2. After confirming the viability and count of detached cells using Trypan blue, the cells were centrifuged at 4° C. for 5 minutes (1,000 rpm). The cell pellet obtained was washed once with PBS and resuspended in 1% PBSA to obtain the desired cell concentration (5-25 million cells/mL).
# Cell numbers used for the assay were in the range of 5 million cells/condition −25 million cells/condition.
# Total uptake: Cells were incubated with 300 μL (0.8 μCi) of the incubation buffer (containing radiolabeled peptide [^177Lu] Lu-test peptide) for 1 hour at 37° C. (Table 8). Post incubation, the cells were pelleted and washed 2 times using cold PBS+1% BSA. The supernatant and washes were combined and counted together as “unbound fraction” in a gamma counter. The cells were then resuspended in 300 μL of 1% PBS+1% BSA and counted in the gamma counter as “bound fraction”.
# In these Tables, “A” represents %≤25; “B” represents 25<%≤50; “C” represents %>50.
# SHP-77 cells [4] = experiment: Internalization (out of bound fraction) of [177Lu]Lu-test peptide, SHP-77 cells; format: cell-based; details: SHP77 cells, 1 hour at 37° C., after 50 mM Glycine pH=2.5 wash
# Method: [^177Lu]LuCl3 was received from venders in HCl solution. For every mCi of [^177Lu]LuCl3 added to the reaction vial (1.5 mL Eppendorf vial), ammonium acetate buffer (0.2 M, pH 4.9, 100 μL, containing 1% w/v ascorbic acid and 6% v/v ethanol) and peptide conjugate (1 nmol). A peptide conjugate of the present disclosure is also referred to herein as a “chelator-peptide”. The pH of the solution was determined to be approximately 5 by using pH strips. The reaction vial was incubated at 80° C., 700 RPM for 17-20 minutes. A sample from the reaction was analyzed by RP-HPLC using an Agilent Infinity II 1260 HPLC to determine reaction completion and radiochemical purity of [^177Lu]Lu-chelator-peptide. […]
# Total uptake: Cells were incubated with 300 μL (0.8 μCi) of the incubation buffer (containing radiolabeled peptide [^177Lu] Lu-test peptide) for 1 hour at 37° C. […] The supernatant and washes were combined and counted together as “unbound fraction” in a gamma counter. The cells were then resuspended in 300 μL of 1% PBS+1% BSA and counted in the gamma counter as “bound fraction”.
# Internalization: The resuspended cells in 300 μl of 1% PBSA and counted in the gamma counter as “bound fraction” were collected in 1.5 mL Eppendorf tube and pelleted. […] This was counted in the gamma counter as “internalized fraction”. […]
# SHP-77 tumors = experiment: Ex vivo biodistribution of radiolabeled peptides in nude mice bearing SHP-77 tumors; details: [177Lu]Lu labelling, nude mice bearing SHP-77 tumors (n = 3), 24 hours post-injection
# Outline: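 Nude mice bearing SHP-77 xenografts (200-400 mm^3) or tumor-naïve mice (5-7 weeks) received an intravenous tail-vein bolus of [^177Lu]Lu-peptide and were euthanized at pre-set time points. Tissues were weighed and gamma-counted, with counts decay-corrected to injection time. Values are % IA/g per tissue from the injected activity of each mouse.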
# [5] = biological target: DLL3 on CT26.DLL3 cells (Homo sapiens (Human)) (UniProt Q9NYJ7); experiment: 177Lu-peptide bound to CT26.DLL3 cells, gamma counting; letter grade, key in paragraph 629
# DLL3 on SHP-77 cells = biological target: T2, DLL3 on SHP-77 cells; experiment: 177Lu-peptide bound to SHP-77 cells, gamma counting; letter grade, key in paragraph 629
# Method: as §1
# Total uptake: Cells were incubated with 300 μL (0.8 μCi) of the incubation buffer (containing radiolabeled peptide [¹⁷⁷Lu] Lu-test peptide) for 1 hour at 37° C. (Table 8). Post incubation, the cells were pelleted and washed 2 times using cold PBS+1% BSA. The supernatant and washes were combined and counted together as “unbound fraction” in a gamma counter. The cells were then resuspended in 300 μL of 1% PBS+1% BSA and counted in the gamma counter as “bound fraction”.
# [6] = biological target: T3, Biotinylated human DLL3 (Delta Like …); experiment: SPR; letter grade, key in paragraph 614; lower limit of grade B
# Method: (§2) Biotinylated target ligand human DLL3 was immobilized on a streptavidin sensor chip. A reference surface was set up for nonspecific binding and refractive index changes. For analysis of the kinetics of interactions, varying concentrations of samples were injected at a flow rate of 100 μL/minute using running buffer containing 20 mM phosphate buffer with 2.7 mM KCl, 137 mM NaCl, 0.05% Surfactant P20 and 2% DMSO. Sensorgram curves were fitted with 1:1 binding model, and affinity and kinetic parameters were obtained using Biacore Insight evaluation 4.0. software.
# [7] = biological target: T3, Biotinylated human DLL3 (Delta Like …); experiment: SPR; letter grade, key in paragraph 614; upper limit of grade B
# Method: as §2
# [8] = biological target: Biotinylated human DLL3 (Delta Like Canonical Notch Ligand 3) (human) (UniProt Q9NYJ7); experiment: SPR; letter grade, key in paragraph 614
molecule,measurement,setting,value
"CCCCCCCCCCCC(=O)NCCCC[C@@H]1NC(=O)[C@H](Cc2ccc3ccccc3c2)NC(=O)[C@H](CC(N)=O)NC(=O)[C@H](CC2CCNCC2)NC(=O)[C@@H](NC(=O)[C@@H](NC(=O)[C@@H](NC(=O)[C@H](Cc2c[nH]c3ccccc23)NC(C)=O)[C@@H](C)O)[C@@H](C)CC)CSSC[C@@H](C(=O)N[C@@H](Cc2c[nH]c3ccccc23)C(=O)N2CCC[C@H]2C(=O)N[C@H](CCCCNC(=O)CN2CCN(CC(=O)O)CCN(CC(=O)O)CCN(CC(=O)O)CC2)C(N)=O)NC(=O)[C@H](CC(=O)O)NC1=O [compound 326, Ac-W-T-I-C(3)-[3-(4-piperidinyl)-Ala]-N-(2Nal)-K(C12)-D-C(3)-W-P-[D-Lys(DOTA)]-NH2] (Ac-WTIC[Ala(piperidin-4-yl)]N[2Nal]K(Lauroyl)DCWP[dK](DOTA)-NH2; disulfide 4-10)",Kd,human DLL3,1 to 10 nM
same,% Binding,CT26.DLL3 cells [1],A (%≤25)
same,% Internalization (out of bound fraction),CT26.DLL3 cells [2],C (%>50)
same,% Binding,SHP-77 cells [3],A (%≤25)
same,% Internalization (out of bound fraction),SHP-77 cells [4],B (25<%≤50)
same,kidney uptake (% IA/g),SHP-77 tumors; kidney,C (0 < % IA/g ≤ 10 in kidney)
same,tumor uptake (% IA/g),SHP-77 tumors; tumor,A (0 < % IA/g ≤ 5 in tumor)
Ac-WTIC[Ala(piperidin-4-yl)]N[2Nal]KDCWP[dK](DOTA)-NH2 (disulfide 4-10; not fully specified (residue 8); also: 177Lu chelated in DOTA) [[177Lu]Lu-labelled Cpd No. 326],% Binding,[5],< 25%
same,% Binding,DLL3 on SHP-77 cells,< 25%
Ac-WTICNNWHDCWP[dK](DOTA)-NH2 (disulfide 4-10) [Cpd No. 23],Kd,[6],> 1 nM
same,Kd,[7],≤ 10 nM
Ac-[Trp(5-F)]T[Cha]CNN[2Nal]HDC[Trp(7-aza)][Pro(trans-4-F)][dK](DOTA)-NH2 (disulfide 4-10) [Cpd No. 245],Kd,[8],< 1 nM
